Measured values reported in PMC8391236, “Effect of Pterostilbene, a Natural Derivative of Resveratrol, in the Treatment of Colorectal Cancer through Top1/Tdp1-Mediated DNA Repair Pathway” (Cancers, 2021).

Legend:
[1] = system: subcutaneous CL187 xenograft; experiment: Subcutaneous CL187 xenograft model; type: in vivo, BABLc/nude mice
Description: CL187 cell suspension was collected at 1 × 10^6 /mL, and 0.1 mL cell was inoculated into the right inguinal region of nude mice. The tumor was no metastasis. The diameter of the transplanted tumor in nude mice was measured with a vernier caliper. After 16-day inoculation (the tumor grew to 90 mm^3), the animals were randomly divided into 7 groups (6 mice per group). The drug was administered by intraperitoneal injection. Blank control group was injected with saline. […] According to the preliminary test results. […] Positive control group was injected with irinotecan (20 mg/kg) twice a week, During the experiment, the changes of body weight of nude mice were recorded, and the anti-tumor effect of the samples was dynamically investigated by measuring tumor diameter. On Day 31 post treatment, the nude mice were sacrificed, and the tumor blocks were removed surgically, weighed, and recorded.

[2] = system: HCT-8; experiment: Cell viability assay (CCK-8); type: cell-based, Human
Description: (§1) PTE or RE were dissolved in DMSO and diluted with culture medium to 1–100 μM. The final concentration of DMSO was less than 0.1%, and 0.1% DMSO as negative control. CPT, as Top1 inhibitor, was diluted to 0.5 μM [36, 37], and FM, as Tdp1 inhibitor was diluted to 25 μM [38]. Exponentially growing cells were seeded in 96-well plates (5 × 10^3 cells/well) for 12 h. Various drugs were added separately and incubated for 24, 48, and 72 h. Cell viability was determined by CCK-8 (Beyotime Biotechnology, Shanghai, China) assay. […]
(§2) The drug concentration required for inhibiting cell proliferation by 50% (IC50) was determined by interpolation from dose-response curves.

[3] = system: HCT-116; experiment: Cell viability assay (CCK-8); type: cell-based, Human
Description: as §1, §2

[4] = system: CL187; experiment: Cell viability assay (CCK-8); type: cell-based, Human
Description: as §1, §2

[5] = system: COLO205; experiment: Cell viability assay (CCK-8); type: cell-based, Human
Description: as §1, §2

[6] = system: LoVo; experiment: Cell viability assay (CCK-8); type: cell-based, Human
Description: as §1, §2

[7] = system: Top1 and Tdp1; experiment: Top1 and Tdp1 in xenograft tumor tissues (WB, qPCR); type: in vivo, BABLc/nude mice; conditions: subcutaneous CL187 xenograft
Description: The 20 mg of the tumor was added into 1 mL RIPA lysis, and homogenized for 3 times under low temperature condition, and centrifuged at 12,000 rpm for 10 min. Subsequently, the supernatant was collected, and the contents of Top1 and Tdp1 were determined by WB as described in Section 2.4.4. The 20 mg of tumor was added into 1 mL Trizol, and homogenized for 3 times. The expression levels of Top1 and Tdp1 were analyzed using the method described in Section 2.4.5.

[8] = system: CL187 cells; experiment: Cell cycle analysis by flow cytometry; type: cell-based, Human; conditions: 48 h, blank control 14.70%
[9] = 25 mg/kg i.p. once a day, Day 31
[10] = 50 mg/kg i.p. once a day, Day 31
[11] = 100 mg/kg i.p. once a day, Day 31
[12] = 200 mg/kg i.p. once a day, Day 31

SMILES: COc1cc(/C=C/c2ccc(O)cc2)cc(OC)c1 [PTE, 3,5-dimethoxy-4′-hydroxy-trans-stilbene]
- Relative Tumor Proliferation Rate (T/C, %) [1, 9]: 53.53%
- Tumor Inhibitory Rate (TGI, %) [1, 9]: 54.24 ± 4.80%
- Tumor Volume [1, 9]: 1.725 ± 0.203 ** cm^3
- Tumor Weight [1, 9]: 1.60 ± 0.17 g
- TGI ([1]; 25 mg/kg, 31 days): 54.24 ± 4.80%
- Relative Tumor Proliferation Rate (T/C, %) [1, 10]: 39.56%
- Tumor Volume [1, 10]: 1.243 ± 0.189 *** cm^3
- Tumor Weight [1, 10]: 1.39 ± 0.19 g
- Relative Tumor Proliferation Rate (T/C, %) [1, 11]: 24.20%
- Tumor Volume [1, 11]: 0.779 ± 0.168 *** cm^3
- Tumor Weight [1, 11]: 0.96 ± 0.11 g
- Relative Tumor Proliferation Rate (T/C, %) [1, 12]: 20.71%
- Tumor Volume [1, 12]: 0.623 ± 0.158 *** cm^3
- Tumor Weight [1, 12]: 0.73 ± 0.09 g
- adverse reactions during the entire treatment process ([1]; subcutaneous CL187 xenograft nude mice, CPT-11 20 mg/kg, PTE 25-200 mg/kg i.p.): did not have the above-mentioned adverse reactions
- IC50 ([2]; HCT-8, 72 h, listed as Pterostilbene): 25 ± 6.62 µM
- IC50 ([2]; Homo sapiens, HCT-8, 24 h): 29.9 ± 10.6 µM
- IC50 ([2]; Homo sapiens, HCT-8, 48 h): 25.4 ± 8.25 µM
- IC50 ([2]; Homo sapiens, HCT-8, 72 h): < 30 µM
- IC50 ([3]; HCT-116, 72 h, listed as Pterostilbene): 21.4 ± 6.79 µM
- IC50 ([3]; Homo sapiens, HCT-116, 24 h): 31.2 ± 10.2 µM
- IC50 ([3]; Homo sapiens, HCT-116, 48 h): 15.4 ± 4.49 µM
- IC50 ([3]; Homo sapiens, HCT-116, 72 h): < 30 µM
- IC50 ([4]; CL187, 72 h): < 30 µM
- IC50 ([4]; CL187, 72 h, listed as Pterostilbene): 14.4 ± 2.93 µM
- IC50 ([4]; Homo sapiens, 24 h, CL187, 24 h): 24.2 ± 11.6 µM
- IC50 ([4]; Homo sapiens, 48 h, CL187, 48 h): 13.8 ± 4.7 µM
- IC50 ([5]; COLO205, 72 h): < 30 µM
- IC50 ([5]; COLO205, 72 h, listed as Pterostilbene): 13.6 ± 6.1 µM
- IC50 ([5]; Homo sapiens, COLO 205, 24 h, COLO205, 24 h): 44.4 ± 16.7 µM
- IC50 ([5]; Homo sapiens, COLO 205, 48 h, COLO205, 48 h): 24.5 ± 9.13 µM
- IC50 ([6]; 72 h): < 30 µM
- IC50 ([6]; 72 h, listed as Pterostilbene): 12 ± 4.01 µM
- IC50 ([6]; Homo sapiens, 24 h): 106 ± 28.6 µM
- IC50 ([6]; Homo sapiens, 48 h): 14.2 ± 4.84 µM
- mRNA expression of Top1 and Tdp1 in tumor tissues [7]: inhibited
- protein contents of Top1 and Tdp1 in tumor tissues (WB) ([7]; especially high-concentration group): decreased significantly
- proportion of G2/M-phase cells ([8]; CL187, 10 μM): 48.69%
- proportion of G2/M-phase cells ([8]; CL187, 20 μM): 52.98%
- proportion of G2/M-phase cells ([8]; CL187, 50 μM): 55.33%
